In publication PMC5862592, “CDK8/19 inhibition induces premature G1/S transition and ATR-dependent cell death in prostate cancer cells” (Oncotarget, 2018) one finds remaining binding data, which are given here for 2 molecules.

What all share (experiment): biochemical
Common to all, as to parameters: KINOMEscan active site-directed competition binding assay (DiscoveRx), 456 kinases, per cent of control at 300 nM
Conditions in all cases: read-out: Percent of Control (%)

One experiment addresses SRC (Homo sapiens, UniProt P12931). On the procedure:
(§1) Kinase selectivity of T-474 and T-418 was evaluated at 300 nmol/L using a panel of 456 kinases at DiscoveRx (KINOMEscan). The platform employs an active site-directed competition binding assay to quantitatively measure interactions between test compounds and kinases. […] In VCaP prostate cancer cells, treatment with T-474 or T-418 suppressed the phosphorylation of the known CDK8 substrate STAT1 at Ser727 both in the absence and in the presence of IFN-γ (Figure 1B), which stimulates CDK8-mediated STAT1 phosphorylation.

Another experiment deals with RET(V804L) (Homo sapiens, UniProt P07949, V804L). On the procedure:
as §1

A further experiment concerns the target BMPR2 (Homo sapiens, UniProt Q13873). On the procedure:
as §1

The target in a further experiment is T1, MLK1 (Homo sapiens, UniProt P80192).
T1 construct: gene MAP3K9
As to the method:
as §1

The target of experiment [1] is T2, RSK3(Kin.Dom.1-N-terminal) (Homo sapiens, UniProt Q15349).
T2 construct: gene RPS6KA2; Kin.Dom.1-N-terminal
On the procedure: as §1

Another experiment deals with SYK (Homo sapiens, UniProt P43405). On the procedure: as §1
A further experiment addresses NEK1 (Homo sapiens, UniProt Q96PY6). As to the method:
as §1

For the next experiment, the target named is PIK3CA(C420R) (Homo sapiens, UniProt P42336, C420R). On the procedure:
as §1

A further experiment concerns the target TAOK1 (Homo sapiens, UniProt Q7L7X3). On the procedure:
as §1

Experiment [2] concerns the target T3, RSK1(Kin.Dom.2-C-terminal) (Homo sapiens, UniProt Q15418).
T3 construct: gene RPS6KA1; Kin.Dom.2-C-terminal
As to the method: as §1

The next experiment concerns the target PIK3CA(H1047L) (Homo sapiens, UniProt P42336, H1047L). As to the method: as §1
In the next experiment the target is TNIK (Homo sapiens, UniProt Q9UKE5). As to the method: as §1
The next experiment deals with CSNK1A1L (Homo sapiens, UniProt Q8N752). On the procedure: as §1
A further experiment deals with PIK3C2G (Homo sapiens, UniProt O75747). As to the method:
as §1

The next experiment has as its target T4, ERK5 (Homo sapiens, UniProt Q13164).
T4 construct: gene MAPK7
On the procedure: as §1

The target of a further experiment is ITK (Homo sapiens, UniProt Q08881). On the procedure:
as §1

Another experiment concerns the target T5, BIKE (Homo sapiens, UniProt Q9NSY1).
T5 construct: gene BMP2K
On the procedure:
as §1

Experiment [3] deals with T6, TYK2(JH2domain-pseudokinase) (Homo sapiens, UniProt P29597).
T6 construct: JH2domain-pseudokinase
As to the method: as §1

In a further experiment the target is T7, YANK3 (Homo sapiens, UniProt Q86UX6).
T7 construct: gene STK32C
On the procedure: as §1

The next experiment concerns the target T8, LZK (Homo sapiens, UniProt O43283).
T8 construct: gene MAP3K13
As to the method: as §1

In a further experiment the target is T9, CDK4-cyclinD3 (Homo sapiens, UniProt P11802).
T9 construct: cyclinD3
As to the method:
as §1

SMILES strings stand for the structures. Where two headings read alike, the source gives them in different places.

Chain of PIK3CA(H1047L) (P42336 whole entry H1047L): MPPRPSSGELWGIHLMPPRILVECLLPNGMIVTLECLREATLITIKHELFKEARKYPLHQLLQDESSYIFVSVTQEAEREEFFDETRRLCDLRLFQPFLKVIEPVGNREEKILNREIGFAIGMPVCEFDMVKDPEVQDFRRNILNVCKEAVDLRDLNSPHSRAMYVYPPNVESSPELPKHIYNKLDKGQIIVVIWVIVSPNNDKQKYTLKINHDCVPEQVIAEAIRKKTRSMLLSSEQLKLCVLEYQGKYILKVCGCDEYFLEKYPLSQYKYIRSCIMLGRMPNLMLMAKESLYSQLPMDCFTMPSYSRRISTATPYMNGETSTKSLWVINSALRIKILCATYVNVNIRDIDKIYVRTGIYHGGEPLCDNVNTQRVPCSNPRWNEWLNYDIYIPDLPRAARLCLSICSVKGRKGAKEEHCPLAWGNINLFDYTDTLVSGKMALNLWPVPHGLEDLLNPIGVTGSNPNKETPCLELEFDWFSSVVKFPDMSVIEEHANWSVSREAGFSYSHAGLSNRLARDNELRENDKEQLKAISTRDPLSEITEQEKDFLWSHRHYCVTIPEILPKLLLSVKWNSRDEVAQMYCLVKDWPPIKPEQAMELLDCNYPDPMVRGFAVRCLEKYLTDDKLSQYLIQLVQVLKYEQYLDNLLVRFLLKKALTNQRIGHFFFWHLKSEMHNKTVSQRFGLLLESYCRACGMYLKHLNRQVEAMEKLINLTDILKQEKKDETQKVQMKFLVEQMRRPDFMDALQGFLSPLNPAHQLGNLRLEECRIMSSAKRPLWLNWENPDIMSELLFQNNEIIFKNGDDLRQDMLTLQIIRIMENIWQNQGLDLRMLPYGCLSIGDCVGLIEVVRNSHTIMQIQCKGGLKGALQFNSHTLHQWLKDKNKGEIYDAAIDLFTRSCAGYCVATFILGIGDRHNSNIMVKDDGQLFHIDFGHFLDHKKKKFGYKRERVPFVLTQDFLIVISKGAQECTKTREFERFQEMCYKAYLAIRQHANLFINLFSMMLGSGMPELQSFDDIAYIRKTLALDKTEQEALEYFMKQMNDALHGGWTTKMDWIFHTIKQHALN
T4 sequence (Q13164 whole entry): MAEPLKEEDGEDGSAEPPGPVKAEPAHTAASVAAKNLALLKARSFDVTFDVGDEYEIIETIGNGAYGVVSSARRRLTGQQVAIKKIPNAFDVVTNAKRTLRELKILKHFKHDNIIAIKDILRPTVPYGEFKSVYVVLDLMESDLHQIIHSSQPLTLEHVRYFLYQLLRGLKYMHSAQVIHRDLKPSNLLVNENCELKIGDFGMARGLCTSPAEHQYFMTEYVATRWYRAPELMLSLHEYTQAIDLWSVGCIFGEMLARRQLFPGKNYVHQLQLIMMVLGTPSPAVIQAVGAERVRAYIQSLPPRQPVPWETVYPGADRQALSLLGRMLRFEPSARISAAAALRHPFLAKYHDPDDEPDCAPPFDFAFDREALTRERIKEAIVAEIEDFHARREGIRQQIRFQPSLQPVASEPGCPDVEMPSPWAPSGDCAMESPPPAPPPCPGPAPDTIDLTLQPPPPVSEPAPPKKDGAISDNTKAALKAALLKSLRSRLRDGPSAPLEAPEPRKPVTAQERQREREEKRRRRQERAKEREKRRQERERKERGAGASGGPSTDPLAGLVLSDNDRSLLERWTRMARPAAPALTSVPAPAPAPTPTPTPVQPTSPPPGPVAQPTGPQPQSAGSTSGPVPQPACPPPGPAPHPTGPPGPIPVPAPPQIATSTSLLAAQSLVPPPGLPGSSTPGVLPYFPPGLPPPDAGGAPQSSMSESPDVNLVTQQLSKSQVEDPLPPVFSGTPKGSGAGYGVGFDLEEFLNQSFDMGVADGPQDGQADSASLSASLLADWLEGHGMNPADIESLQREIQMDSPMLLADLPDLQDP
T5 sequence (Q9NSY1 whole entry): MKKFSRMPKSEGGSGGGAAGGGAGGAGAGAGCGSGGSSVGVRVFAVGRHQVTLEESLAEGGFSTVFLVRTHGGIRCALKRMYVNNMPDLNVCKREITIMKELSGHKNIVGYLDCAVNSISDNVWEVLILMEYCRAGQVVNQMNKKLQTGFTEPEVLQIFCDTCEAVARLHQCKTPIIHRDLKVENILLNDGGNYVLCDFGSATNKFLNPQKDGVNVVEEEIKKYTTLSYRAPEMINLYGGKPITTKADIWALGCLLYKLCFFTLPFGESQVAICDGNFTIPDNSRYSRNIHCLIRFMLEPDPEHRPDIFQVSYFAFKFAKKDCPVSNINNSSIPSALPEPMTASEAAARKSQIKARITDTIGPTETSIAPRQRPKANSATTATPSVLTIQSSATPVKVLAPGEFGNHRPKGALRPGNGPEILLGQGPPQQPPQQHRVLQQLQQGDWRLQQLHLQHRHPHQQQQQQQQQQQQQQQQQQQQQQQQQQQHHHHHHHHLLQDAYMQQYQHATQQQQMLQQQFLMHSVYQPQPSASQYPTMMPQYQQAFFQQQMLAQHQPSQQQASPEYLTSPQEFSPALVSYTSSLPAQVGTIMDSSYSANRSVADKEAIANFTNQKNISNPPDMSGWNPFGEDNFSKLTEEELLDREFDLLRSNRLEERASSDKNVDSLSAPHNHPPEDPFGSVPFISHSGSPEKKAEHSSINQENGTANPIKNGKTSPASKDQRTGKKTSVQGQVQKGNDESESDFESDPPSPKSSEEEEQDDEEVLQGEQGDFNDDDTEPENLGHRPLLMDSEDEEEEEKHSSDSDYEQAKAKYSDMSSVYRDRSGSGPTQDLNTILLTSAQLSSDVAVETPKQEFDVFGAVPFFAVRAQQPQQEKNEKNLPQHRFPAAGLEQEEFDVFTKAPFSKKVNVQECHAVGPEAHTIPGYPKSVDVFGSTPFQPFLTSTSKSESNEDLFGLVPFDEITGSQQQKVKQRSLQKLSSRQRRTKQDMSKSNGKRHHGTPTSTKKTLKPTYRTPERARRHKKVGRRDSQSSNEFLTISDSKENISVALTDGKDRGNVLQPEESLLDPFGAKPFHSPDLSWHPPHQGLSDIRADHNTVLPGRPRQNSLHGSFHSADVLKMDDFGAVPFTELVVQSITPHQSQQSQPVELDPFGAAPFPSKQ
T7 sequence (Q86UX6 whole entry): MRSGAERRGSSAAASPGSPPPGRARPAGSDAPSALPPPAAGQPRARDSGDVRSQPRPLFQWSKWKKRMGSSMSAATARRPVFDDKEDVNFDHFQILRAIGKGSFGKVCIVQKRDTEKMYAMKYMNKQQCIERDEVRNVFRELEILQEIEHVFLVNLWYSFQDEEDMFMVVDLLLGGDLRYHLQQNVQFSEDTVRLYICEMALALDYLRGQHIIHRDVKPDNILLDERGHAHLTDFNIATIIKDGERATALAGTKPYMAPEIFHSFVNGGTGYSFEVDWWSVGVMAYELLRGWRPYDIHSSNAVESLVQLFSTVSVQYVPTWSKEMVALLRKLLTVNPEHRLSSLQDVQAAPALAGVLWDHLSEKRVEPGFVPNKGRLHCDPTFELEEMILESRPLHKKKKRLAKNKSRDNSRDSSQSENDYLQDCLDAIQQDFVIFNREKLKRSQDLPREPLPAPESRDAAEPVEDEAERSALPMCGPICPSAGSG
Chain of ITK (Q08881 whole entry): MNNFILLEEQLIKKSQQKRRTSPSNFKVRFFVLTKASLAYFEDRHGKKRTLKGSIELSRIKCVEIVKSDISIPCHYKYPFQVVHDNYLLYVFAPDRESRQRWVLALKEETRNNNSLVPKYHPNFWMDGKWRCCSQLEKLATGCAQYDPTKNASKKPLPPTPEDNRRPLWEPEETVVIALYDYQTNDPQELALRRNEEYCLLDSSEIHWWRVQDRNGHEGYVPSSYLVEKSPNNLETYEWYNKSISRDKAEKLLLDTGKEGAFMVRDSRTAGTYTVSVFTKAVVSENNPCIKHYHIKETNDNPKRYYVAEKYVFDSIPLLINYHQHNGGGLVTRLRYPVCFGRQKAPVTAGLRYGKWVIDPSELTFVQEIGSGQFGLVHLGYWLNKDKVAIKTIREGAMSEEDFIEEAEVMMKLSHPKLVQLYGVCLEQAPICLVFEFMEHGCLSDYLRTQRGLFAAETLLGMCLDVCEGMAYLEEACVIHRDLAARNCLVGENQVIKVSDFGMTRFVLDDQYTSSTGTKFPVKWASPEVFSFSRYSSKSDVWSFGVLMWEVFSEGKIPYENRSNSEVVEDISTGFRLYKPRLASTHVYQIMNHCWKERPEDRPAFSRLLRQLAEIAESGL
T3 sequence (Q15418 whole entry): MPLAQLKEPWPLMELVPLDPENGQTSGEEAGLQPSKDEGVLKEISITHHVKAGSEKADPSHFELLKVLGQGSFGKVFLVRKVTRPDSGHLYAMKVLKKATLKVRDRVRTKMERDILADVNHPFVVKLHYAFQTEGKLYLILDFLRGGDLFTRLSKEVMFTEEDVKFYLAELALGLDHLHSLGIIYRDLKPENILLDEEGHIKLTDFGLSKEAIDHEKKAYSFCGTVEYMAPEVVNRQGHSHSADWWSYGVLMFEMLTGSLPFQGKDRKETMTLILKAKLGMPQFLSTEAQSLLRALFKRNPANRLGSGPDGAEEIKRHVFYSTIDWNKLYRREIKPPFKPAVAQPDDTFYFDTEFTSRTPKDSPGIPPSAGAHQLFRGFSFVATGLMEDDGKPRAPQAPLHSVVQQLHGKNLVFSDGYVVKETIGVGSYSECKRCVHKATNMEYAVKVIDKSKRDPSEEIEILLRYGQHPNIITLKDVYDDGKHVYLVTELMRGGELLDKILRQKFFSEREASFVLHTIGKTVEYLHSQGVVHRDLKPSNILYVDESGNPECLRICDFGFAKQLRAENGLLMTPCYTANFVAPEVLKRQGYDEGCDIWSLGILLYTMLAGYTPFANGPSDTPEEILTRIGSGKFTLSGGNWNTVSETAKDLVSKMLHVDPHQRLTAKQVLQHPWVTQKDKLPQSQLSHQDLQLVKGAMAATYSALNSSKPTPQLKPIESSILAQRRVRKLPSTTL
Chain of PIK3CA(C420R) (P42336 whole entry C420R): as the sequence (P42336 whole entry H1047L) above, with C420R, L1047H counted along it

For the molecule `O=C(/C=C/c1cnccc1-c1ccc(F)cc1)Nc1ccc(CCc2nnco2)cc1` [T-418, (2E)-3-(4-(4-fluorophenyl)pyridin-3-yl)-N-(4-(2-(1,3,4-oxadiazol-2-yl)ethyl)phenyl)acrylamide], the remaining binding at 0.3 µM at SRC (sheet T-418) came out at 90%; on RET(V804L) (sheet T-418), 81%; on BMPR2 (sheet T-418), 86%; on MLK1 (sheet T-418), 100%; in [1] (sheet T-418), 79%; on SYK (sheet T-418), 100%. Also, the remaining binding at 0.3 µM on NEK1 (sheet T-418) was 90%; at PIK3CA(C420R) (sheet T-418), 86%; on TAOK1 (sheet T-418), 100%; in experiment [2] (sheet T-418), 100%; on PIK3CA(H1047L) (sheet T-418), 100%; on TNIK (sheet T-418) it was 100%. In addition, the remaining binding at 0.3 µM was 92% at CSNK1A1L (sheet T-418); 95% at PIK3C2G (sheet T-418); 75% at ERK5 (sheet T-418); 100% on ITK (sheet T-418); 97% at BIKE (sheet T-418); 100% in experiment [3] (sheet T-418). Moreover, the figures for the remaining binding at 0.3 µM on YANK3 (sheet T-418), at LZK (sheet T-418) and on CDK4-cyclinD3 (sheet T-418) were 100%, 96% and 95%, respectively.
As to `Cc1ncccc1Oc1sc(C(N)=O)c2c1-c1c(cnn1C)CC2` [T-474, 1-methyl-8-((2-methylpyridin-3-yl)oxy)-4,5-dihydro-1H-thieno[3,4-g]indazole-6-carboxamide], the remaining binding at 0.3 µM amounted to 96% at SRC; 94% on RET(V804L); 99% on BMPR2; 100% at MLK1; 100% in [1]; 100% on SYK. Moreover, the remaining binding at 0.3 µM was 95% at NEK1; 95% at PIK3CA(C420R); 95% on TAOK1; 100% in [2]; 100% at PIK3CA(H1047L); 100% on TNIK. Besides, the remaining binding at 0.3 µM at CSNK1A1L is 100%; on PIK3C2G it was 92%; at ERK5 it was 98%; on ITK it was 100%; at BIKE it was 100%; in experiment [3], 100%. In addition, the figures for the remaining binding at 0.3 µM at YANK3, at LZK and at CDK4-cyclinD3 were 100%, 100% and 98%, respectively.
